According to patent US10952436B2, “Microbiocidal quinoline (thio)carboxamide derivatives” (SYNGENTA PARTICIPATIONS AG, priority 2017, dated 2021):

Tests used:
[1] = tested on: Glomerella lagenarium (Colletotrichum lagenarium); assay: Glomerella lagenarium (Colletotrichum lagenarium)/Liquid Culture (Anthracnose); assay type: cell-based; conditions: Colletotrichum orbiculare; 200 ppm; liquid culture, compared to untreated control, 3-4 days after application; read-out: control of Glomerella lagenarium
[2] = tested on: Magnaporthe grisea (Pyricularia oryzae); assay: microbe, parasite or virus in culture; assay type: cell-based; conditions: read-out: control of Magnaporthe grisea
[3] = tested on: Monographella nivalis (Microdochium nivale); assay: Monographella nivalis (Microdochium nivale)/Liquid Culture (Foot Rot Cereals); assay type: cell-based; conditions: 200 ppm, liquid culture, compared to untreated control, 4-5 days after application, read-out: control of Monographella nivalis
[4] = tested on: Botryotinia fuckeliana (Botrytis cinerea); assay: Botryotinia fuckeliana (Botrytis cinerea)/Liquid Culture (Gray Mould); assay type: cell-based; conditions: 200 ppm, liquid culture, compared to untreated control, 3-4 days after application, read-out: control of Botryotinia fuckeliana
[5] = tested on: Magnaporthe grisea (Pyricularia oryzae); assay: whole plant or invertebrate; assay type: in vivo; conditions: foliar, read-out: control of Magnaporthe grisea
[6] = tested on: Fusarium culmorum; assay: microbe, parasite or virus in culture; assay type: cell-based; conditions: read-out: control of Fusarium culmorum
[7] = tested on: Fusarium culmorum; assay: whole plant or invertebrate; assay type: in vivo; conditions: in Triticum aestivum, read-out: control of Fusarium culmorum
[8] = tested on: Sclerotinia sclerotiorum; assay: Sclerotinia sclerotiorum/Liquid Culture (Cottony Rot); conditions: read-out: control of Sclerotinia sclerotiorum
Description: Mycelia fragments of a newly grown liquid culture of the fungus are directly mixed into nutrient broth (Vogels broth). After placing a (DMSO) solution of test compound into a microtiter plate (96-well format) the nutrient broth containing the fungal material is added. The test plates are incubated at 24° C. and the inhibition of growth is determined photometrically 3-4 days after application.

| SMILES | inhibition of growth at 200 ppm [1] [%] | inhibition of growth at 200 ppm [2] [%] | inhibition of growth at 200 ppm [3] [%] | inhibition of growth at 200 ppm [4] [%] | pest or weed control at 200 ppm [5] [%] | melting point [°C] | inhibition of growth at 200 ppm [6] [%] | pest or weed control at 200 ppm [7] [%] | inhibition of growth at 20 ppm [8] [%] |
| --- | --- | --- | --- | --- | --- | --- | --- | --- | --- |
| C#CCC(C)(Cc1ccccc1)C(=O)Nc1cnc2c(F)cccc2c1 (stereo not shown) [Compound E-26, 2-benzyl-N-(8-fluoro-3-quinolyl)-2-methyl-pent-4-ynamide] | ≥ 80 | ≥ 80 | ≥ 80 | ≥ 80 | ≥ 80 | 189 to 191 | ≥ 80 |  |  |
| C=C(Cl)CC(Cc1ccccc1)C(=O)Nc1cnc2c(F)cccc2c1 (stereo not shown) [Compound E-6, 2-benzyl-4-chloro-N-(8-fluoro-3-quinolyl)pent-4-enamide] | ≥ 80 |  | ≥ 80 | ≥ 80 | ≥ 80 | 166 to 168 | ≥ 80 |  |  |
| Cc1c(NC(=O)[C@](C)(Cc2ccccc2)CC(F)(F)F)cnc2c(F)cccc12 [Compound F-13, (2R)-2-benzyl-4,4,4-trifluoro-N-(8-fluoro-4-methyl-3-quinolyl)-2-methyl-butanamide] | ≥ 80 | ≥ 80 | ≥ 80 | ≥ 80 |  | 71 to 73 | ≥ 80 | ≥ 80 | ≥ 80 |
| C=C(C)C[C@@](C)(Cc1ccccc1)C(=O)Nc1cnc2c(F)cccc2c1 [Compound F-21, (2S)-2-benzyl-N-(8-fluoro-3-quinolyl)-2,4-dimethyl-pent-4-enamide] | ≥ 80 |  | ≥ 80 | ≥ 80 | ≥ 80 | 132 to 135 | ≥ 80 | ≥ 80 |  |
| CC(C)CC(F)(Cc1ccccc1)C(=O)Nc1cnc2c(F)cccc2c1 (stereo not shown) [Compound E-1, 2-benzyl-2-fluoro-N-(8-fluoro-3-quinolyl)-4-methyl-pentanamide] | ≥ 80 |  | ≥ 80 | ≥ 80 | ≥ 80 |  | ≥ 80 | ≥ 80 |  |
| C=C(C)CC(Cc1ccccc1)C(=O)Nc1cnc2c(F)cccc2c1C (stereo not shown) [Compound E-93, 2-benzyl-N-(8-fluoro-4-methyl-3-quinolyl)-4-methyl-pent-4-enamide] | ≥ 80 |  | ≥ 80 | ≥ 80 | ≥ 80 | 116 to 118 | ≥ 80 |  |  |
| C=C(Cl)CC(C)(Cc1ccccc1)C(=O)Nc1cnc2c(F)cccc2c1 (stereo not shown) [Compound E-53, 2-benzyl-4-chloro-N-(8-fluoro-3-quinolyl)-2-methyl-pent-4-enamide] | ≥ 80 | ≥ 80 | ≥ 80 | ≥ 80 |  | 148 to 150 | ≥ 80 | ≥ 80 | ≥ 80 |
| CC#CCC(C)(Cc1ccccc1)C(=O)Nc1cnc2c(F)cccc2c1 (stereo not shown) [Compound E-30, 2-benzyl-N-(8-fluoro-3-quinolyl)-2-methyl-hex-4-ynamide] |  | ≥ 80 | ≥ 80 | ≥ 80 | ≥ 80 | 136 to 138 | ≥ 80 |  |  |
| C#CCC(C)(Cc1ccccc1)C(=O)Nc1cc2cccc(F)c2nc1C (stereo not shown) [Compound E-2, 2-benzyl-N-(8-fluoro-2-methyl-3-quinolyl)-2-methyl-pent-4-ynamide] | ≥ 80 |  |  | ≥ 80 | ≥ 80 |  | ≥ 80 | ≥ 80 |  |
| Cc1nc2c(F)cccc2cc1NC(=O)C(Cc1ccccc1)CC(F)(F)F (stereo not shown) [Compound E-44, 2-benzyl-4,4,4-trifluoro-N-(8-fluoro-2-methyl-3-quinolyl)butanamide] | ≥ 80 | ≥ 80 |  | ≥ 80 | ≥ 80 |  | ≥ 80 | ≥ 80 |  |
| Cc1c(NC(=O)[C@@](C)(Cc2ccccc2)CC(C)C)cnc2c(F)cccc12 [Compound F-4, (2R)-2-benzyl-N-(8-fluoro-4-methyl-3-quinolyl)-2,4-dimethyl-pentanamide] | ≥ 80 |  |  | ≥ 80 | ≥ 80 |  | ≥ 80 | ≥ 80 |  |
| CCCCC(C)(Cc1ccccc1)C(=O)Nc1cnc2c(F)cccc2c1 (stereo not shown) [Compound E-27, 2-benzyl-N-(8-fluoro-3-quinolyl)-2-methyl-hexanamide] |  | ≥ 80 | ≥ 80 | ≥ 80 | ≥ 80 | 135 to 137 | ≥ 80 |  |  |
| CC(Cc1ccc(F)cc1)(CC(F)(F)F)C(=O)Nc1cnc2c(F)cccc2c1 (stereo not shown) [Compound E-18, 4,4,4-trifluoro-2-[(4-fluorophenyl)methyl]-N-(8-fluoro-3-quinolyl)-2-methyl-butanamide] | ≥ 80 | ≥ 80 | ≥ 80 | ≥ 80 | ≥ 80 |  | ≥ 80 |  | ≥ 80 |
| Cc1nc2c(F)cccc2cc1NC(=O)C(C)(Cc1cccc(F)c1)CC(C)C (stereo not shown) [Compound E-10, N-(8-fluoro-2-methyl-3-quinolyl)-2-[(3-fluorophenyl)methyl]-2,4-dimethyl-pentanamide] | ≥ 80 | ≥ 80 | ≥ 80 | ≥ 80 |  | 93 to 95 | ≥ 80 | ≥ 80 | ≥ 80 |
| Cc1c(NC(=O)[C@@](C)(Cc2ccccc2)CC(F)(F)F)cnc2c(F)cccc12 [Compound F-14, (2S)-2-benzyl-4,4,4-trifluoro-N-(8-fluoro-4-methyl-3-quinolyl)-2-methyl-butanamide] | ≥ 80 | ≥ 80 | ≥ 80 | ≥ 80 |  | 74 to 76 | ≥ 80 | ≥ 80 | ≥ 80 |
| C=C(C)CC(CC)(Cc1ccccc1)C(=O)Nc1cnc2c(F)cccc2c1 (stereo not shown) [Compound E-46, 2-benzyl-2-ethyl-N-(8-fluoro-3-quinolyl)-4-methyl-pent-4-enamide] | ≥ 80 | ≥ 80 | ≥ 80 | ≥ 80 | ≥ 80 |  | ≥ 80 |  |  |
| CC#CCC(Cc1ccccc1)C(=O)Nc1cnc2c(F)cccc2c1 (stereo not shown) [Compound E-29, 2-benzyl-N-(8-fluoro-3-quinolyl)hex-4-ynamide] |  | ≥ 80 |  | ≥ 80 | ≥ 80 | 218 to 220 |  |  |  |
